The source of these data is PMC7551400, “Moderate Wine Consumption Reduces Faecal Water Cytotoxicity in Healthy Volunteers” (Nutrients, 2020).

Each structure is given as a SMILES string. Like-named read-outs stand apart in the source and are kept apart here.

Data set [1] relates to HT-29 cells. The settings on record: cited from earlier work.
A further data set deals with HCT 116 cells. Kind of data set: MTT cytotoxicity assay, reference compounds. The settings on record: Homo sapiens, read-out: Toxicity (IC50 value). It counts as cell-based. On the procedure:
(§1) Two human colon adenocarcinoma cell lines, HT-29 (ATCC® HTB-38TM) and […]), were used to evaluate cell cytotoxicity. […] Biowest Europe, Nuaillé, France). […] Cells were grown in 75 cm^2 flasks (Corning Flask, Corning, NY, USA) at 37 °C and in a 5% CO2 atmosphere and the media were renewed every 3 days. […] Cells were seeded at a density of 3.6 × 10^5 cells/mL on well plates, and washed with warm DPBS. […] After that, supernatants were removed from the wells, and MTT (Sigma-Aldrich, St. Louis, MO, USA) solution (0.5 mg/mL) was added (100 μL/well). The plates were immediately incubated for 3 h in darkness. After this time, MTT reagent was aspirated and formazan crystals were diluted in 100 μL of dimethyl sulfoxide (DMSO; Sigma-Aldrich, St. Louis, MO, USA). Absorbance at 570 nm was measured on a Multiskan plate reader (Thermo Scientific, Newington, NH, USA). Cell viability (%) was calculated as Abssample/Abscontrol × 100. Assays were performed in triplicate and three independent experiments were carried out.
On the technique in general: Tetrazolium dyes change colour on reduction, which living cells bring about.

Data set [2] deals with HT-29 cells. Kind of data set: MTT cytotoxicity assay, reference compounds. It counts as cell-based. The settings on record: Homo sapiens, read-out: Toxicity (IC50 value). On the procedure:
as §1

Another data set has as its system HT-29 Glc–/þ cell line. More on the design: method as in PMID 25881551. The settings on record: 24 h incubation; cited from earlier work.
A further data set deals with Caco 2 cells. More on the design: method as in PMID 30359553. The settings on record: 24 h of incubation; cited from earlier work.

By IC50 is commonly meant the concentration at which inhibition is half-maximal. With `Oc1ccccc1` [Phenol], the “Concentration at which compound became cytotoxic” value in the data set with HT-29 cells [1] was 1250 µM. Also, the 50% inhibitory concentration (IC50) with HCT 116 cells (HCT-116, 4 h) is 23.8 mM; in the data set with HCT 116 cells (HCT-116, 24 h) it was 11.4 mM; in the data set with HT-29 cells [2] (HT-29, 4 h), 15.8 mM; with HT-29 cells [2] (HT-29, 24 h) it was 6.16 mM.

Turning to `Cc1ccc(O)cc1` [p-Cresol, p-cresol], in the data set on HT-29 Glc–/þ cell line, the “Concentration with cytotoxicity effects” value is 800 µM. Further, the “Concentration from which a cytotoxic effect was exerted” value in the data set with HT-29 cells [1] (24 h of incubation) and with Caco 2 cells was at least 3000 µM in each case. The IC50 stood at 5.64 mM in the data set on HCT 116 cells (HCT 116, 4 h incubation, MTT); 4.16 mM in the data set with HCT 116 cells (HCT 116, 24 h incubation, MTT); 5.4 mM with HT-29 cells [2] (HT-29, 4 h incubation, MTT); 2.13 mM in the data set on HT-29 cells [2] (HT-29, 24 h incubation, MTT).
